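Growth conditions: 96-well plates. Treatment: test compound, 48 hours, 5 concentrations. Analysis: linear interpolation between bracketing concentrations; unreached endpoints set to highest concentration. Here, GI50 denotes the concentration required for 50% inhibition of growth. TGI: concentration producing complete growth inhibition.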
Columns and labels:
Test in all cases: growth of human tumour cells (NCI), 48 h
HCC-2998 colon = test system: HCC-2998 colon
HCT-15 colon = test system: HCT-15 colon
HL-60(TB) leukemia = test system: HL-60(TB) leukemia
NCI-H522 lung = test system: NCI-H522 lung
RXF 393 renal = test system: RXF 393 renal
SF-539 CNS = test system: SF-539 CNS
SN12C renal = test system: SN12C renal
UACC-62 melanoma = test system: UACC-62 melanoma
K-562 leukemia = test system: K-562 leukemia
OVCAR-3 ovarian = test system: OVCAR-3 ovarian

`CCN(CC)C(=S)SSC(C)C` was tested, and the GI50 (HCC-2998 colon) was 16.8 µM, the TGI (HCC-2998 colon) was 31.1 µM and the GI50 (HCT-15 colon) was 22 µM. The TGI (HCT-15 colon) was 65.4 µM, the GI50 (HL-60(TB) leukemia) was 5.63 µM and the TGI (HL-60(TB) leukemia) was 29.8 µM. The GI50 (NCI-H522 lung) was 0.0295 µM, the TGI (NCI-H522 lung) was 1.34 µM and the GI50 (RXF 393 renal) was 16.5 µM. The TGI (RXF 393 renal) was 31.5 µM, the GI50 (SF-539 CNS) was 18.4 µM and the TGI (SF-539 CNS) was 42.9 µM. The GI50 (SN12C renal) was 14.3 µM, the TGI (SN12C renal) was 30.5 µM and the GI50 (UACC-62 melanoma) was 16.7 µM. For the same compound, the TGI (UACC-62 melanoma) was 35.4 µM.
Work on `COc1ccc(-c2ccc(CC(=O)O)cc2)cc1OC` yielded a TGI (HL-60(TB) leukemia) greater than 100 µM, a TGI (K-562 leukemia) greater than 100 µM and a TGI (NCI-H522 lung) greater than 100 µM. For the same compound, the TGI (OVCAR-3 ovarian) was greater than 100 µM, the TGI (SN12C renal) was greater than 100 µM and the TGI (UACC-62 melanoma) was greater than 100 µM.
`O=C1CC23CCCCCCCCCCC2(C1)CC(=O)C3` (centres undefined) showed a TGI (HCC-2998 colon) greater than 100 µM, a TGI (HCT-15 colon) greater than 100 µM and a TGI (HL-60(TB) leukemia) of 39.2 µM. It also gave a TGI (K-562 leukemia) of 73.3 µM, a TGI (NCI-H522 lung) of 45 µM and a TGI (OVCAR-3 ovarian) of 41.5 µM. It also gave a TGI (RXF 393 renal) of 89.2 µM, a TGI (SF-539 CNS) greater than 100 µM and a TGI (SN12C renal) of 38.6 µM.
With `Cn1c(=O)oc2cc(C3CCC(=O)N3Cc3csc(-c4ccccc4)n3)ccc21` (centres undefined) the TGI (HCC-2998 colon) was greater than 100 µM, the TGI (HCT-15 colon) was greater than 100 µM and the TGI (HL-60(TB) leukemia) was greater than 100 µM. For the same compound, the TGI (K-562 leukemia) was greater than 100 µM, the TGI (NCI-H522 lung) was greater than 100 µM and the TGI (RXF 393 renal) was greater than 100 µM. The TGI (SF-539 CNS) was greater than 100 µM, the TGI (SN12C renal) was greater than 100 µM and the TGI (UACC-62 melanoma) was greater than 100 µM.
`N/N=C(/Cc1ccccc1)NNO` gave a TGI (HCC-2998 colon) greater than 100 µM, a TGI (HCT-15 colon) greater than 100 µM and a TGI (HL-60(TB) leukemia) greater than 100 µM. It also gave a TGI (K-562 leukemia) greater than 100 µM, a TGI (OVCAR-3 ovarian) greater than 100 µM and a TGI (RXF 393 renal) greater than 100 µM. It also gave a TGI (SF-539 CNS) greater than 100 µM and a TGI (UACC-62 melanoma) greater than 100 µM.
`CC(=O)N1[C@H](C(=O)O)CS[C@H]1c1ccc(F)cc1` showed a TGI (HCC-2998 colon) greater than 100 µM, a TGI (HCT-15 colon) greater than 100 µM and a TGI (HL-60(TB) leukemia) greater than 100 µM. The TGI (K-562 leukemia) was greater than 100 µM, the TGI (OVCAR-3 ovarian) was greater than 100 µM and the TGI (RXF 393 renal) was greater than 100 µM. For the same compound, the TGI (SF-539 CNS) was greater than 100 µM and the TGI (SN12C renal) was greater than 100 µM.
For `COC(=O)C(C(=O)C(=O)Nc1c(C)cccc1C(C)(C)C)c1nc2ccc(Cl)cc2[nH]c1=O` (centres undefined), the TGI (HCC-2998 colon) was greater than 100 µM, the TGI (HCT-15 colon) was greater than 100 µM and the TGI (K-562 leukemia) was greater than 100 µM. The TGI (NCI-H522 lung) was greater than 100 µM, the TGI (OVCAR-3 ovarian) was greater than 100 µM and the TGI (RXF 393 renal) was greater than 100 µM. It also gave a TGI (SF-539 CNS) greater than 100 µM, a TGI (SN12C renal) greater than 100 µM and a TGI (UACC-62 melanoma) greater than 100 µM.
In the case of `Oc1ccc(Cl)cc1C=Nc1cnc2ccccc2c1`, the TGI (HCT-15 colon) is reported as greater than 100 µM, the TGI (HL-60(TB) leukemia) is reported as 34.9 µM and the TGI (K-562 leukemia) is reported as greater than 100 µM. It also gave a TGI (NCI-H522 lung) greater than 100 µM, a TGI (OVCAR-3 ovarian) greater than 59.8 µM and a TGI (RXF 393 renal) greater than 100 µM. The TGI (SF-539 CNS) was 45.8 µM, the TGI (SN12C renal) was greater than 100 µM and the TGI (UACC-62 melanoma) was greater than 100 µM.
With `COc1ccc(-n2cc(-c3ccc(OC)c(OC)c3)[nH]c2=O)cc1` the GI50 (HCC-2998 colon) was greater than 100 µM, the TGI (HCC-2998 colon) was greater than 100 µM and the GI50 (HCT-15 colon) was greater than 100 µM. It also gave a TGI (HCT-15 colon) greater than 100 µM, a GI50 (HL-60(TB) leukemia) greater than 100 µM and a TGI (HL-60(TB) leukemia) greater than 100 µM. The GI50 (K-562 leukemia) was greater than 100 µM, the TGI (K-562 leukemia) was greater than 100 µM and the GI50 (NCI-H522 lung) was greater than 100 µM. The TGI (NCI-H522 lung) was greater than 100 µM, the GI50 (OVCAR-3 ovarian) was greater than 100 µM and the TGI (OVCAR-3 ovarian) was greater than 100 µM. The GI50 (SN12C renal) was greater than 100 µM, the TGI (SN12C renal) was greater than 100 µM and the GI50 (UACC-62 melanoma) was greater than 100 µM. For the same compound, the TGI (UACC-62 melanoma) was greater than 100 µM.
Compound `CC(C)C[C@@H](N)[C@@H](O)C(=O)N[C@H](C(=O)N[C@H](C(=O)N[C@@H](CC(=O)O)C(=O)O)C(C)C)C(C)C` has a GI50 (HCC-2998 colon) greater than 20 µM, a TGI (HCC-2998 colon) greater than 20 µM and a GI50 (HCT-15 colon) greater than 20 µM. It also gave a TGI (HCT-15 colon) greater than 20 µM, a GI50 (K-562 leukemia) greater than 20 µM and a TGI (K-562 leukemia) greater than 20 µM. For the same compound, the GI50 (NCI-H522 lung) was greater than 20 µM, the TGI (NCI-H522 lung) was greater than 20 µM and the GI50 (OVCAR-3 ovarian) was greater than 20 µM. For the same compound, the TGI (OVCAR-3 ovarian) was greater than 20 µM, the GI50 (SF-539 CNS) was greater than 20 µM and the TGI (SF-539 CNS) was greater than 20 µM. It also gave a GI50 (SN12C renal) greater than 20 µM, a TGI (SN12C renal) greater than 20 µM and a GI50 (UACC-62 melanoma) greater than 20 µM. It also gave a TGI (UACC-62 melanoma) greater than 20 µM.
In the case of `CN1CCCC2[C@@H]3CCC4c5nonc5CC[C@]4(C)C3CC[C@@]21C` (some centres undefined), the TGI (HCT-15 colon) is reported as greater than 100 µM, the TGI (K-562 leukemia) is reported as greater than 100 µM and the TGI (NCI-H522 lung) is reported as greater than 100 µM. It also gave a TGI (RXF 393 renal) greater than 100 µM, a TGI (SF-539 CNS) greater than 100 µM and a TGI (SN12C renal) greater than 100 µM. For the same compound, the TGI (UACC-62 melanoma) was greater than 100 µM.
With `COc1cc2c(cc1C)NC(=O)/C2=C/c1ccnc2ccccc12` the GI50 (HCC-2998 colon) was 35.7 µM, the TGI (HCC-2998 colon) was greater than 50 µM and the GI50 (HCT-15 colon) was 20.5 µM. The TGI (HCT-15 colon) was greater than 50 µM, the GI50 (HL-60(TB) leukemia) was 30.7 µM and the TGI (HL-60(TB) leukemia) was greater than 50 µM. It also gave a GI50 (K-562 leukemia) of 6.34 µM, a TGI (K-562 leukemia) of 33.6 µM and a GI50 (NCI-H522 lung) of 8.35 µM. It also gave a TGI (NCI-H522 lung) of 41.7 µM, a GI50 (OVCAR-3 ovarian) of 18.4 µM and a TGI (OVCAR-3 ovarian) greater than 50 µM. The GI50 (SF-539 CNS) was 20.8 µM, the TGI (SF-539 CNS) was greater than 50 µM and the GI50 (SN12C renal) was 12.6 µM. It also gave a TGI (SN12C renal) greater than 50 µM, a GI50 (UACC-62 melanoma) of 13.1 µM and a TGI (UACC-62 melanoma) greater than 50 µM.
`O=c1c2cccnc2ncn1CCCN1CCCCC1` was tested, and the TGI (K-562 leukemia) was greater than 100 µM, the TGI (NCI-H522 lung) was greater than 100 µM and the TGI (OVCAR-3 ovarian) was greater than 100 µM. It also gave a TGI (RXF 393 renal) greater than 100 µM, a TGI (SF-539 CNS) greater than 100 µM and a TGI (SN12C renal) greater than 100 µM. It also gave a TGI (UACC-62 melanoma) greater than 100 µM.
With `Cc1n[nH]c2ccccc2c1=O` the TGI (HCT-15 colon) was greater than 100 µM, the TGI (K-562 leukemia) was greater than 100 µM and the TGI (NCI-H522 lung) was greater than 100 µM. For the same compound, the TGI (OVCAR-3 ovarian) was greater than 100 µM, the TGI (RXF 393 renal) was greater than 100 µM and the TGI (SF-539 CNS) was greater than 100 µM. It also gave a TGI (SN12C renal) greater than 100 µM and a TGI (UACC-62 melanoma) greater than 100 µM.
`CCC[CH2][Sn-]([CH2]CCC)([CH2]CCC)[O]C(=O)C(C)C` showed a GI50 (HCC-2998 colon) of 0.164 µM, a TGI (HCC-2998 colon) of 0.329 µM and a GI50 (HCT-15 colon) of 0.117 µM. It also gave a TGI (HCT-15 colon) of 0.249 µM, a GI50 (HL-60(TB) leukemia) of 0.111 µM and a TGI (HL-60(TB) leukemia) of 0.304 µM. For the same compound, the GI50 (K-562 leukemia) was 0.146 µM, the TGI (K-562 leukemia) was 0.315 µM and the GI50 (OVCAR-3 ovarian) was 0.114 µM. It also gave a TGI (OVCAR-3 ovarian) of 0.238 µM, a GI50 (RXF 393 renal) of 0.107 µM and a TGI (RXF 393 renal) of 0.237 µM. It also gave a GI50 (SF-539 CNS) of 0.157 µM, a TGI (SF-539 CNS) of 0.296 µM and a GI50 (SN12C renal) of 0.158 µM. It also gave a TGI (SN12C renal) of 0.318 µM, a GI50 (UACC-62 melanoma) of 0.2 µM and a TGI (UACC-62 melanoma) of 0.424 µM.

From PubChem BioAssay (NCI)
